In paper PMC9686674, “Potent Anti-Inflammatory Effects of a Helix-to-Helix Peptide against Pseudomonas aeruginosa Endotoxin-Mediated Sepsis” (Antibiotics, 2022):
Ends that are not written are not given here.

Assays:
Balb/c mice lungs = assay: LPS-induced acute lung injury (ALI) in mice; type: in vivo; details: 1 mg/kg intratracheal, 3 days, histology
Procedure: Figure 8 In vivo anti-inflammatory effects of peptides in acute lung injury. Pseudomonas aeruginosa LPS (500 ng) was intratracheally instilled in mice lungs. One hour after instillation, peptides were intratracheally administered, followed by monitoring for 3 days. Lungs collected from the euthanized mice were digitally visualized and tissues were stained using eosin/alcian blue, H&E, PE-conjugated TNF-α, and IL6 antibody. Bar is 50 µm.
P. aeruginosa LPS (500 ng) in 50 µL PBS was intratracheally instilled into seven-week-old female Balb/c mice. One hour after exposure, each peptide was intratracheally administered at the indicated dose in 50 µL PBS. Control mice were injected with 50 µL PBS without the peptides. Mice were monitored for signs of morbidity for 3 days after LPS exposure. Mice were euthanized using CO2 inhalation, and the lung tissues were excised and fixed in 4% paraformaldehyde. The fixed tissues were dehydrated using a series of ethanol solutions (50−100%) and embedded in paraffin. The tissues embedded with paraffin were sectioned with a thickness of 5 µm (Leica microtome, Deerfield, MA, USA). Histopathology of the lung tissues was performed using alcian blue and eosin and H&E staining. […] The stained tissue sections were observed under a fluorescence microscope (OPTINIT KCS3-160S; Korea Lab Tech, Seongnam, Gyeonggi-do, Republic of Korea).

[1] = test system: Escherichia coli, Pseudomonas aeruginosa, Staphylococcus aureus, and Listeria monocytogenes; type: cell-based
Procedure: The antibacterial activity was examined using a microdilution assay with Eschrichia coli (ATCC 25922), P. aeruginosa (ATCC 15692) and Staphylococcus aureus (ATCC 25923), which were obtained from the American Type Culture Collection. Listeria monocytogenes (KCTC 3710) was obtained from the Korean Collection for Type Cultures. Cell survival was investigated using the 3-(4,5-dimethylthiazol-2-yl)-2,5-diphenyltetrazolium bromide assay in RAW264.7 cells. The assay was performed as described previously.

RAW 264.7 cells [2] = assay: LPS-stimulated ROS generation (H2DCFDA fluorescence microscopy); type: cell-based, murine; details: RAW 264.7, peptides 8 µM pre-incubated 30 min, P. aeruginosa LPS 100 ng/mL, 24 h
Procedure: Figure 3 CD spectra of peptides in LPS and effects of peptides on reactive oxygen species (ROS) production. (A) Secondary structures of WIK-10, WIR-10, WIK-14, and WIKE-14 peptides (50 µM) in 1 µg/mL Pseudomonas aeruginosa LPS. (B) RAW 264.7 cells were pre-incubated in the absence or presence of peptides (8 µM) for 30 min and treated with or without LPS (100 ng/mL). After 24 h incubation, the cells were treated using H2DCFDA and incubated for […], following which the fluorescent cells were observed under a fluorescence microscope.
RAW 264.7 cells (1 × 10^6 cells/mL) plated in a 24-well plate were pre-cultured for 24 h. Peptides in RPMI-1640 medium were then pretreated to cells for 30 min and P. aeruginosa LPS (100 ng/mL) was added, followed by additional incubation for 24 h. Control cells are not treated with peptides and LPS. H2DCFDA (10 µL, final concentration 10 µM) was treated to the cells, followed by incubation for 30 min in a CO2 incubator. The cells washed with cold-PBS buffer were then observed using a fluorescence microscope (OPTINIT KCS3-160S; Korea Lab Tech, Seongnam, Gyeonggi-do, Republic of Korea).

[3] = test system: binding between LPS and RAW 264.7 cells; assay: Inhibition of FITC-LPS binding to RAW 264.7 cells (fluorescence microscopy and flow cytometry); type: cell-based, murine; details: FITC-LPS 1 µg/mL, fluorescence microscopy, dose-dependent
Procedure: Figure 4 Inhibitory effects of peptides on binding between LPS and RAW 264.7 cells. Fluorescein isothiocyanate-labeled LPS and peptides were incubated for 12 h with RAW 264.7 cells, and cells were washed with PBS, followed by observation using fluorescence microscopy.
RAW 264.7 cells cultured in Roswell Park Memorial Institute Medium (RPMI)-1640 containing 10% fetal bovine serum (FBS) were aliquoted to 1 × 10^6 cells/mL in a 24-well plate, and cultured at 37 °C, 5% CO2 incubator for 24 h. Each well was treated with 1 µg/mL of FITC-attached LPS. After 1 h, peptides were added to the wells at the indicated concentrations. After incubation for 8 h, the cells were washed with cold-PBS, observed under a fluorescence microscope, and measured using flow cytometry (Beckman Coulter CytoFlex, Brea, CA, USA).

RAW 264.7 cells [4] = assay: Cytokine mRNA (IL-6, TNF-α) in LPS-stimulated RAW 264.7 cells (RT-PCR); type: cell-based, murine; details: RAW 264.7, LPS 1 μg/mL, 32 μM peptide, 8 h, compared to only LPS-treated cells
Procedure: (§1) Figure 6 Anti-inflammatory effects of peptides in RAW 264.7 cells. (A) Secreted nitric oxide and tumor necrosis factor-α were measured from the supernatants after 24 h of LPS-stimulation with peptides (32 µM). (B) mRNA expression of RAW 264.7 cells with peptides. IL-6, interleukin-6, TNF- α, tumor necrosis factor-α; GAPDH, Glyceraldehyde 3-phosphate dehydrogenase. 1: control, 2: LPS, 3: LPS+Polymyxin B, 4: LPS+KIW-10, 5: LPS+WIK-10, 6: LPS+RIW-10, 7: LPS+WIR-10, 8: LPS+KIW-14, 9: LPS+WIK-14, 10: LPS+WIKE-14.
RAW 264.7 cells were cultured in RPMI-1640 medium containing 10% FBS, and then seeded to 5 × 10^6 cells/mL in a 6-well plate and cultured at 37 °C, 5% CO2 incubator for 24 h. Each well was treated with 1 μg/mL of LPS; after 1 h, 32 μM of each peptide was added and incubated for 8 h. Cells were collected, and total RNA was isolated using TRIzol reagent (Thermo Fisher Scientific, Waltham, MA, USA). 5′-[…]-3′ and 5′-[…]-3′ as Glyceraldehyde 3-phosphate dehydrogenase primers, 5′-[…]-3′ and 5′-[…]-3′ as IL-6 primers, and 5′-[…]-3′ and 5′-[…]-3′ as TNF-α primers were used for reverse transcription-polymerase chain reaction (RT-PCR). The PCR products generated using the Maxime RT-PCR premix kit (IntronBio, Seongnam, Gyeonggi-do, Republic of Korea) were confirmed using electrophoresis.

RAW 264.7 cells [5] = assay: Nitric oxide production in LPS-stimulated RAW 264.7 cells (Griess); type: cell-based, murine; details: RAW 264.7, P. aeruginosa LPS 1 µg/mL, peptides 32 µM, 24 h, Griess reagent
Procedure: as §1
The murine macrophage cell RAW 264.7 was grown RPMI-1640 medium supplemented with 10% FBS and then plated at a density of 1 × 10^6 cells/mL in a 24-well microplate. After incubation for 24 h, the cells were stimulated with P. aeruginosa LPS (1 µg/mL), followed by further incubation for 1 h. Peptides were incubated for 24 h. Nitrite was measured by adding 100 µL of cell culture extract to 100 µL of Griess reagent (1% sulfanilamide and 0.1% naphthylenediamine in 5% phosphoric acid). The nitrite concentrations were calculated by comparing the absorbance of sodium nitrite standard solutions. The optical density was evaluated at 550 nm in a microplate reader (Molecular Devices, Emax, CA, USA). TNF-α levels in culture supernatants were analyzed using the R&D system TNF-α EASIA kit, Minneapolis, MN, USA). The developed color was determined by measuring the OD at 490 nm in a microplate reader.

| Substance | GM, geometric mean of minimum inhibitory concentration values [1] [µM] | further results |
| --- | --- | --- |
| WIKKIWKKIIKKIK-NH2 [WIK-14] | 2.1 ± 0.4 | toxicity in lung tissue cells, peptide alone (Balb/c mice lungs): toxic |
| KKIWKKWIKI-NH2 [KWI-10] | 10.5 ± 1.2 |  |
| WIKKIWKKIK-NH2 [WIK-10] | 6.5 ± 0.8 |  |
| RRIIRRIWRW-NH2 [RIW-10] | 8.5 ± 0.8 |  |
| melittin |  | ROS-producing level of LPS-treated cells (RAW 264.7 cells [2]): significantly reduced |
| KKIIKKIIKKIWKW-NH2 [KIW-14] | 2.6 ± 1.2 |  |
| KKIWKKWIKKIIKI-NH2 [KWI-14] | 2.6 ± 0.8 |  |
| RRIWRRWIRI-NH2 [RWI-10] | 7 ± 1.2 |  |
| WIKKIWKKIIKEIK-NH2 [WIKE-14] | 8 ± 0.8 | toxicity in lung tissue cells, peptide alone (Balb/c mice lungs): non-toxic |
| KKIIKKIWKW-NH2 [KIW-10] | 11 ± 1 |  |
| WIRRIWRRIR-NH2 [WIR-10] | 3 ± 0.2 |  |
| polymyxin B |  | FITC fluorescence signals in RAW 264.7 cells (FITC-LPS binding) [3]: dramatically decreased; ROS-producing level of LPS-treated cells (RAW 264.7 cells [2]): significantly reduced; expression levels of IL-6 and TNF-α (mRNA) (RAW 264.7 cells [4]): clearly decreased; LPS-induced NO secretion (RAW 264.7 cells [5]): inhibited |
